The source of these data is publication PMC10648406, “Pulicaria incisa (Lam.) DC. as a Potential Source of Antioxidant, Antibacterial, and Anti-Enzymatic Bioactive Molecules: Phytochemical Constituents, In Vitro and In Silico Pharmacological Analysis” (Molecules, 2023).

The test system of test [1] is E. coli. The test is described as follows: MIC, resazurin microtitre method. The class given is cell-based. The following applies: Escherichia coli, 24 h, read-out: Minimal inhibitory concentration. As for the experimental part: (§1) To ensure sterility, the extracts and DMSO underwent ultrafiltration before their use in the study. The minimum inhibitory concentration (MIC) of both aqueous and methanolic extracts was determined using a modified version of the resazurin method developed by Sarker and Nahar. A resazurin solution was prepared by dissolving 270 mg of resazurin in 40 mL of sterilized deionized water. In 96-well microtiter plates, the first row received 100 μL of samples in DMSO (1:10 v/v), while all other wells received 50 μL of Luria–Bertani broth or normal sterile solution. Serial dilutions of the extracts were performed in descending concentrations. To each well, 10 μL of the resazurin indicator solution was added. […] The plates were sealed with parafilm to prevent dehydration. A column of the plate contained the broad-spectrum antibiotic tetracycline, which was previously suspended in DMSO and served as a positive control. The negative control consisted of Luria–Bertani broth containing resazurin and bacteria without any samples. The plates were incubated at 37 °C (35 °C for A. baumannii) for 24 h. Visual observation was used to assess any color changes. If the solution changed from dark purple to pink or colorless, it was recorded as a positive result. The MIC value was determined as the lowest concentration of extracts that could prevent the color change from dark purple to pink.

Test [2] relates to L. monocytogenes. In words: MIC, resazurin microtitre method. The class given is cell-based. The following applies: Listeria monocytogenes, 24 h, 37 °C, read-out: Minimal inhibitory concentration. The procedure:
as §1

In test [3] the test system is S. aureus. In words: MIC, resazurin microtitre method. As to conditions: Staphylococcus aureus, 24 h, read-out: Minimal inhibitory concentration. The class given is cell-based. The procedure: as §1
(Alamar Blue is a resazurin reagent that responds to reducing activity.)

Test [4] has as its system A. baumannii. In words: MIC, resazurin microtitre method. The class given is cell-based. As to conditions: Acinetobacter baumannii, 24 h, 35 °C, read-out: Minimal inhibitory concentration. The procedure:
as §1

The subject of test [5] is P. aeruginosa. The test is described as follows: MIC, resazurin microtitre method. The class given is cell-based. The following applies: Pseudomonas aeruginosa, 24 h, 37 °C, read-out: Minimal inhibitory concentration. As for the experimental part:
as §1

Test [6] in a line: DPPH assay. The following applies: 45 min, 515 nm. The procedure:
The antiradical activity of the stable 1,1-diphenyl-2-picrylhydrazyl radical (DPPH) was measured using the protocol of Xiang and coworkers with slight modifications. […] To produce final concentrations ranging from 31.25 to 1000 µg/mL, aliquots of extracts were dissolved in methanol. In a straight-sided cuvette, an aliquot of methanol solution containing different concentrations of either methanolic or aqueous extracts was added to a DPPH solution (60 μM) to a final volume of 1 mL. As a control, an identical quantity of DPPH solution was applied to the cuvette, and methanol alone was used as the blank. After 45 min, the absorbance at 515 nm was measured with a Multiskan GO spectrophotometer (Thermo Fisher Scientific, Vantaa, Finland).
The standard was 6-hydroxy 2,5,7,8-tetramethylchroman-2-carboxylic acid (Trolox, Sigma-Aldrich, Milan, Italy).
(Loss of DPPH colour is used to gauge radical scavenging.)

Values after ≈ are worked out from the molar mass of the structure shown.

Regarding `CN(C)[C@@H]1C(O)=C(C(N)=O)C(=O)[C@@]2(O)C(O)=C3C(=O)c4c(O)cccc4[C@@](C)(O)[C@H]3C[C@@H]12` [Tetracycline], the MIC came out at 25 ± 2 mg/L (≈ 56.3 µM) in test [1]; 32 ± 1 mg/L (≈ 72 µM) in test [2]; 28 ± 1 mg/L (≈ 63 µM) in test [3]; 25 ± 2 mg/L (≈ 56.3 µM) in test [4]; 28 ± 1 mg/L (≈ 63 µM) in test [5].

Consider `Cc1c(C)c2c(c(C)c1O)CCC(C)(C(=O)O)O2` (stereo not drawn) [Trolox, 6-hydroxy 2,5,7,8-tetramethylchroman-2-carboxylic acid], for which the “DPPH (IC50)” value in test [6] came out at 3.65 ± 0.01 mg/L.
